Test results taken from patent publication US20210009542A1 (Calico Life Sciences LLC, priority 2018, published 2021).
Like-named read-outs stand apart in the source and are kept apart here.

Key:
[1] = target: T1, His tagged PTPN2 (TC45) protein (Homo sapiens, UniProt P17706); assay: Mobility shift assay (MSA) for potency of PTPN2 inhibitors; format: biochemical; details: read-out: PTPN2 MSA IC50
T1 construct: made in house
T1 sequence (P17706 with tags, fused parts or gaps isoform P17706-2): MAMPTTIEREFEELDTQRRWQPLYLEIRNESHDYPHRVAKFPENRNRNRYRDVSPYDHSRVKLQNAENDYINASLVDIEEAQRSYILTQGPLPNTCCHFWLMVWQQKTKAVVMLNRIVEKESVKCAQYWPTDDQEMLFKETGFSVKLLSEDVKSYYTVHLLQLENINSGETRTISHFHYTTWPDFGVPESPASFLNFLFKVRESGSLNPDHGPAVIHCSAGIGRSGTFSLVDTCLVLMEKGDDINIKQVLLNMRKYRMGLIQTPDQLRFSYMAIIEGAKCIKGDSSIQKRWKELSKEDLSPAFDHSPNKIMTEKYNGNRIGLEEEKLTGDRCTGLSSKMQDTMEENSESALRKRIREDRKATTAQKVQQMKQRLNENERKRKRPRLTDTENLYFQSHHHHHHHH
In short: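 IC50 values were derived from % inhibition of substrate conversion, measured by microfluidic mobility shift (ex 488/em 530) after quenching. The fluorescent phosphotyrosine insulin-receptor peptide ([…]) reacted for 10 min at room temperature with 0.5 nM His-tagged TC45 PTPN2 that had been preincubated 10 min with compound (12 points, 1:3). Buffer was HEPES pH 7.5 with EGTA, EDTA, Tween 20 and DTT.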

[2] = tested on: B16F10 mouse melanoma cells; assay: B16F10 IFNγ-induced cellular growth inhibition assay; format: cell-based; details: Mus musculus, B16-F10, 33 μM compound
In short: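 Live-cell imaging of confluence every 6 h over 5 days at 37 °C tracked growth of mouse B16F10 melanoma cells seeded overnight at 500/well. Semi-log compound series (final 100–0.001 μM, 0.1% DMSO) ran in both arms, ±IFNγ at 0.5 ng/mL final; inhibition taken relative to DMSO plus IFNγ when IFNγ-free DMSO wells passed 95% confluence.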

[3] = +0.5 ng/mL IFNγ, relative to DMSO control, read-out: % B16F10 growth inhibition (+0.5 ng/mL IFNγ) @ 33 μM
[4] = no IFNγ, read-out: % B16F10 growth inhibition (no IFNγ) @ 33 μM

SMILES | IC50 [1] [nM] | inhibition at 33 µM [2, 3] [%] | inhibition at 33 µM [2, 4] [%]
COc1ccc(-c2ccc3cc(O)c(N4CC(=O)NS4(=O)=O)c(F)c3c2)s1 [Compound 227, 5-[1-fluoro-3-hydroxy-7-(5-methoxythiophen-2-yl)naphthalen-2-yl]-1λ^6,2,5-thiadiazolidine-1,1,3-trione] | 1 to 10 | 60 to 90 | < 25
O=C1CN(c2c(O)cc3ccc(C4=CCN(S(=O)(=O)C5CC5)CC4)cc3c2F)S(=O)(=O)N1 [Compound 297, 5-{7-[1-(cyclopropanesulfonyl)-1,2,3,6-tetrahydropyridin-4-yl]-1-fluoro-3-hydroxynaphthalen-2-yl}-1λ^6,2,5-thiadiazolidine-1,1,3-trione] | 1 to 10 | 25 to 59 | < 25
CC(C)(CC#N)CCOc1ccc2cc(O)c(N3CC(=O)NS3(=O)=O)c(F)c2c1 [Compound 115, 5-{[8-fluoro-6-hydroxy-7-(1,1,4-trioxo-1λ^6,2,5-thiadiazolidin-2-yl)naphthalen-2-yl]oxy}-3,3-dimethylpentanenitrile] | < 1 | 60 to 90 | < 25
O=C1CN(c2c(O)cc3ccc(OCC(F)F)cc3c2F)S(=O)(=O)N1 [Compound 302, 5-[7-(2,2-difluoroethoxy)-1-fluoro-3-hydroxynaphthalen-2-yl]-1λ^6,2,5-thiadiazolidine-1,1,3-trione] | 1 to 10 | 60 to 90 | < 25
CS(=O)(=O)N1CC(Nc2ccc3cc(O)c(N4CC(=O)NS4(=O)=O)c(F)c3c2)C1 [Compound 128, 5-(1-fluoro-3-hydroxy-7-{[1-(methanesulfonyl)azetidin-3-yl]amino}naphthalen-2-yl)-1λ^6,2,5-thiadiazolidine-1,1,3-trione] | 1 to 10 | > 90 | < 25
O=C1CN(c2c(O)cc3ccc(OCC4CC4)cc3c2F)S(=O)(=O)N1 [Compound 250, 5-[7-(cyclopropylmethoxy)-1-fluoro-3-hydroxynaphthalen-2-yl]-1λ^6,2,5-thiadiazolidine-1,1,3-trione] | 1 to 10 | 60 to 90 | < 25
N#CCCCCOc1ccc2cc(O)c(N3CC(=O)NS3(=O)=O)c(F)c2c1 [Compound 111, 5-{[8-fluoro-6-hydroxy-7-(1,1,4-trioxo-1λ^6,2,5-thiadiazolidin-2-yl)naphthalen-2-yl]oxy}pentanenitrile] | < 1 | 60 to 90 | < 25
Nc1ccccc1CS(=O)(=O)N1CC=C(c2ccc3cc(O)c(N4CC(=O)NS4(=O)=O)c(F)c3c2)C1 [Compound 195, 5-(7-{1-[(2-aminophenyl)methanesulfonyl]-2,5-dihydro-1H-pyrrol-3-yl}-1-fluoro-3-hydroxynaphthalen-2-yl)-1λ^6,2,5-thiadiazolidine-1,1,3-trione] | < 1 | 60 to 90 | < 25
O=C1CN(c2c(O)cc3ccc(C4CNC4)cc3c2F)S(=O)(=O)N1 [Compound 226, 5-[7-(azetidin-3-yl)-1-fluoro-3-hydroxynaphthalen-2-yl]-1λ^6,2,5-thiadiazolidine-1,1,3-trione] | 1 to 10 | 60 to 90 | < 25
O=C1CN(c2c(O)cc3ccc(/C=C/C4CC4)cc3c2F)S(=O)(=O)N1 [Compound 239, 5-{7-[(E)-2-cyclopropylethenyl]-1-fluoro-3-hydroxynaphthalen-2-yl}-1λ^6,2,5-thiadiazolidine-1,1,3-trione] | 1 to 10 | 60 to 90 | < 25
COC(C)(C)CCOc1ccc2cc(O)c(N3CC(=O)NS3(=O)=O)c(F)c2c1 [Compound 170, 5-[1-fluoro-3-hydroxy-7-(3-methoxy-3-methylbutoxy)naphthalen-2-yl]-1λ^6,2,5-thiadiazolidine-1,1,3-trione] | < 1 | 60 to 90 | < 25
O=C1CN(c2c(O)cc3ccc(-c4cnn(S(=O)(=O)C5CC5)c4)cc3c2F)S(=O)(=O)N1 [Compound 303, 5-{7-[1-(cyclopropanesulfonyl)-1H-pyrazol-4-yl]-1-fluoro-3-hydroxynaphthalen-2-yl}-1λ^6,2,5-thiadiazolidine-1,1,3-trione] | < 1 | 60 to 90 | < 25
O=C1CN(c2c(O)cc3ccc(C4CCS(=O)(=O)CC4)cc3c2F)S(=O)(=O)N1 [Compound 248, 5-[7-(1,1-dioxo-1λ^6-thian-4-yl)-1-fluoro-3-hydroxynaphthalen-2-yl]-1λ^6,2,5-thiadiazolidine-1,1,3-trione] | 1 to 10 | 60 to 90 | < 25
O=C1CN(c2c(O)cc3ccc(OCCF)cc3c2F)S(=O)(=O)N1 [Compound 198, 5-[1-fluoro-7-(2-fluoroethoxy)-3-hydroxynaphthalen-2-yl]-1λ^6,2,5-thiadiazolidine-1,1,3-trione] | 1 to 10 | 60 to 90 | < 25
O=C1CN(c2c(O)cc3ccc4occc4c3c2F)S(=O)(=O)N1 [Compound 104, 5-(9-fluoro-7-hydroxynaphtho[2,1-b]furan-8-yl)-1λ^6,2,5-thiadiazolidine-1,1,3-trione] | 1 to 10 | 25 to 59 | < 25
CC(C)Oc1ccc2cc(O)c(N3CC(=O)NS3(=O)=O)c(F)c2c1 [Compound 279, 5-{1-fluoro-3-hydroxy-7-[(propan-2-yl)oxy]naphthalen-2-yl}-1λ^6,2,5-thiadiazolidine-1,1,3-trione] | 1 to 10 | 60 to 90 | < 25
CCC(=O)CCOc1ccc2cc(O)c(N3CC(=O)NS3(=O)=O)c(F)c2c1 [Compound 155, 5-{1-fluoro-3-hydroxy-7-[(3-oxopentyl)oxy]naphthalen-2-yl}-1λ^6,2,5-thiadiazolidine-1,1,3-trione] | < 1 | 60 to 90 | 60 to 90
O=C1CN(c2c(O)cc3ccc(C4=CCOCC4)cc3c2F)S(=O)(=O)N1 [Compound 264, 5-[7-(3,6-dihydro-2H-pyran-4-yl)-1-fluoro-3-hydroxynaphthalen-2-yl]-1λ^6,2,5-thiadiazolidine-1,1,3-trione] | 1 to 10 | 60 to 90 | < 25
N#CCC1(COc2ccc3cc(O)c(N4CC(=O)NS4(=O)=O)c(F)c3c2)CC1 [Compound 130, [1-({[8-fluoro-6-hydroxy-7-(1,1,4-trioxo-1λ^6,2,5-thiadiazolidin-2-yl)naphthalen-2-yl]oxy}methyl)cyclopropyl]acetonitrile] | < 1 | 60 to 90 | < 25
O=C1CN(c2c(O)cc3ccc(CCC4CC4)cc3c2F)S(=O)(=O)N1 [Compound 209, 5-[7-(2-cyclopropylethyl)-1-fluoro-3-hydroxynaphthalen-2-yl]-1λ^6,2,5-thiadiazolidine-1,1,3-trione] | 1 to 10 | 60 to 90 | < 25
CP(C)(=O)c1ccc(-c2ccc3cc(O)c(N4CC(=O)NS4(=O)=O)c(F)c3c2)s1 [Compound 141, 5-{7-[5-(dimethylphosphoryl)thiophen-2-yl]-1-fluoro-3-hydroxynaphthalen-2-yl}-1λ^6,2,5-thiadiazolidine-1,1,3-trione] | < 1 | 60 to 90 | < 25
N#CC1(CCOc2ccc3cc(O)c(N4CC(=O)NS4(=O)=O)c(F)c3c2)CC1 [Compound 159, 1-(2-{[8-fluoro-6-hydroxy-7-(1,1,4-trioxo-1λ^6,2,5-thiadiazolidin-2-yl)naphthalen-2-yl]oxy}ethyl)cyclopropane-1-carbonitrile] | < 1 | > 90 | < 25
CC(C)NC(=O)Oc1ccc2cc(O)c(N3CC(=O)NS3(=O)=O)c(F)c2c1 [Compound 103, 8-fluoro-6-hydroxy-7-(1,1,4-trioxo-1λ^6,2,5-thiadiazolidin-2-yl)naphthalen-2-yl propan-2-ylcarbamate] | 1 to 10 | 60 to 90 | < 25
CCS(=O)(=O)NCCOc1ccc2cc(O)c(N3CC(=O)NS3(=O)=O)c(F)c2c1 [Compound 311, N-(2-{[8-fluoro-6-hydroxy-7-(1,1,4-trioxo-1λ^6,2,5-thiadiazolidin-2-yl)naphthalen-2-yl]oxy}ethyl)ethanesulfonamide] | < 1 | 60 to 90 | < 25
CCOc1ccc2cc(O)c(N3CC(=O)NS3(=O)=O)c(F)c2c1 [Compound 301, 5-(7-ethoxy-1-fluoro-3-hydroxynaphthalen-2-yl)-1λ^6,2,5-thiadiazolidine-1,1,3-trione] | 1 to 10 | 60 to 90 | < 25
